Data: patent US20220289668A1 (PHARMALEADS, priority 2019, published 2022)

Assays:
[1] = biological target: T1, LTA4H (Homo sapiens, UniProt P09960); assay: LTA4 hydrolase assay, substrate (L)-Ala-β-naphthylamide; assay type: biochemical; settings: recombinant enzyme 0.6 μg/mL, substrate 1 mM, 50 mM Tris HCl pH 7.4, 100 mM NaCl, 37° C.; read-out: LTA4H (nM), inhibitory power Ki
T1 sequence (P09960 1-611): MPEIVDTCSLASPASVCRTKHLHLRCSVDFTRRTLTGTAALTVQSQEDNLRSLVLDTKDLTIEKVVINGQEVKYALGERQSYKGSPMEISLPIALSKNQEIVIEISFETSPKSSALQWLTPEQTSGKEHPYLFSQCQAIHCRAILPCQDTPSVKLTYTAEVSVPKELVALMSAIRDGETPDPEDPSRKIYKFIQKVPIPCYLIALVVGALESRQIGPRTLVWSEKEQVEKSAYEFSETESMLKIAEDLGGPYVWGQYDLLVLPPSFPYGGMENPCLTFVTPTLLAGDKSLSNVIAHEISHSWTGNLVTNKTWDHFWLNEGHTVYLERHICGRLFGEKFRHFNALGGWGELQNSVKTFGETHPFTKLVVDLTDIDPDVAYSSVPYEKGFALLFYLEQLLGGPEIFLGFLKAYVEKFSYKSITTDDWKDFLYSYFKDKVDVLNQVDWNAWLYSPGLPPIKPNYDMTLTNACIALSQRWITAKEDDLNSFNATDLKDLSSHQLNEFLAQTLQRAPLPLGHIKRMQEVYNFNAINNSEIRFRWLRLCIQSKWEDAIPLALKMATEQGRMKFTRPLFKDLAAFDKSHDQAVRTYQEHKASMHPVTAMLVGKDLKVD
Procedure: (§1) The claimed inhibitors were tested on different Zn^2+ peptidases representative of this family of enzymes, capable of inhibiting them, such as type 1 neprilysin (E.C.3.4.24.11, NEP-1), neutral aminopeptidase (E.C.3.4.11.2, APN) and LTA4H.
(§2) The assays are carried out on […] in the presence of fluorigenic substrates specific for each enzyme.
(§3) Generally speaking, the inhibitors are pre-incubated, in increasing concentrations, with the enzyme for 10 min, at 37° C. The substrate is then added and the mixture is incubated for 30 to 60 min at 37° C. The reaction is stopped at 4° C. and the reading of the fluorescence emitted is done by reading the Berthold Twinkle LS970B plate. An inhibition curve is then plotted as a function of the concentration of inhibitor using GraphPad software, then the Ki is determined from the Cheng Prusoff formula: Ki=IC50/(1+(S/Km)).
To determine the Ki values of the different inhibitors with regard to LTA4H, 0.6 μg/mL of recombinant enzyme were incubated beforehand for 30 minutes at 37° C. in 50 mM Tris HCl, pH 7.4, 100 mM NaCl, with increasing concentrations of inhibitor (from 10^−10 M to 10^−4 M of final concentration). The fluorescent substrate (L)-Ala-β-naphthylamide (1 mM) is added in a final volume of 100 μL and is incubated at 37° C. for 15 minutes. The fluorescence values are measured on a Berthold Twinkle LB 970 (λex=340 nm, λem=405 nm, energy of the lamp 10000). Samples containing 0% hydrolysis were obtained by adding the substrate to the buffer and samples having a relative activity of 100% were prepared without inhibitor. The percentage cleavage was evaluated and compared with a relative activity of 100%, and the IC50 values were determined as a consequence. The Ki values of the inhibitors (average of at least three double independent assays) were calculated using the equation Ki=IC50/(1+[S]/Km).

[2] = biological target: T2, aminopeptidase N (APN), recombinant human enzyme (Homo sapiens, UniProt P15144); assay: Neutral aminopeptidase (APN) assay, substrate L-Ala-β-NA; assay type: biochemical; settings: APN-rh 50 ng/mL, substrate 50 μM, 50 mM Tris pH 7.4, 37° C.; read-out: APN (nM), inhibitory power Ki
T2 construct: purchased R&D System
T2 sequence (P15144 whole entry): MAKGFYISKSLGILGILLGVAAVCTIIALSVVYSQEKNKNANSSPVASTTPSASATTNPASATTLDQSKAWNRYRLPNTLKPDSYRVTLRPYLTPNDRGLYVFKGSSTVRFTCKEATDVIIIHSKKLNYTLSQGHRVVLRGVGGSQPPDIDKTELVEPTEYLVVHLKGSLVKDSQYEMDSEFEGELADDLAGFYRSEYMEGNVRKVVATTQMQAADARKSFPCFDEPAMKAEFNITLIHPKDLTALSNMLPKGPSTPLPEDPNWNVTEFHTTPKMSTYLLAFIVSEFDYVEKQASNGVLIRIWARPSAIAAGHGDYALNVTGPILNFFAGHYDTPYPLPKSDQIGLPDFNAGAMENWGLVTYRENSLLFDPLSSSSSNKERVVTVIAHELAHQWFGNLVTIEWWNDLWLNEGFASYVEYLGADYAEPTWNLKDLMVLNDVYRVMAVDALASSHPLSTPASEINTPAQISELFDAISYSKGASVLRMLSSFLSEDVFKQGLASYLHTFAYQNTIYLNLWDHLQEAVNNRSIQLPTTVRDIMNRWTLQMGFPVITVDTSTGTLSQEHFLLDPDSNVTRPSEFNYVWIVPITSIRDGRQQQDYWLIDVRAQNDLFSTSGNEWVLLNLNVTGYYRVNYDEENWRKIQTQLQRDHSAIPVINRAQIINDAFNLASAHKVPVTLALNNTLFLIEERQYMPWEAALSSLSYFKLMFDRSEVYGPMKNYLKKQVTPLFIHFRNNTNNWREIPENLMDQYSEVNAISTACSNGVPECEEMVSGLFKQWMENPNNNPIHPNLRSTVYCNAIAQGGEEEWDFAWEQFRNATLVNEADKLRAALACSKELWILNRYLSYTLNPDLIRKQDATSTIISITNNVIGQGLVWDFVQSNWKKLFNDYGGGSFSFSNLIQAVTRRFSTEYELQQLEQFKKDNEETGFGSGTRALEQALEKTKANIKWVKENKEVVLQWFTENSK
Procedure: as §1, §2, §3
The measurement of the inhibition of aminopeptidase N (APN) is carried out by use of the substrate L-Ala↓β-NA (50 μM, Sigma Aldrich). The inhibitory powers are determined by using recombinant human enzyme (rh) (50 ng/mL; R&D System). Increasing concentrations (from 10^−10 to 10^−3 M) of inhibitors are pre-incubated for 30 min at 37° C. with APN-rh in 50 mM Tris buffer, pH 7.4. The substrate is next added and the incubation is continued for 30 min at 37° C. The reaction is stopped by placing the plate in ice for 10 min. The reading of the emitted fluorescence is measured in a fluorimeter at λex=340 nm, λem=405 nm.

[3] = biological target: T3, Neprilysin (NEP), purified from rabbit kidney (Oryctolagus cuniculus, UniProt P08049); assay: Neprilysin (NEP) assay, fluorigenic substrate Dansyl-Gly-(NO2)Phe-β-Ala; assay type: biochemical; settings: rabbit kidney NEP 200 ng/mL, substrate 20 μM, 50 mM Tris pH 7.4, 37° C.; read-out: NEP (nM), inhibitory power Ki
T3 construct: Neprilysin, purified from rabbit kidney; from tissue; host or cells: rabbit kidney
T3 sequence (P08049 1-750): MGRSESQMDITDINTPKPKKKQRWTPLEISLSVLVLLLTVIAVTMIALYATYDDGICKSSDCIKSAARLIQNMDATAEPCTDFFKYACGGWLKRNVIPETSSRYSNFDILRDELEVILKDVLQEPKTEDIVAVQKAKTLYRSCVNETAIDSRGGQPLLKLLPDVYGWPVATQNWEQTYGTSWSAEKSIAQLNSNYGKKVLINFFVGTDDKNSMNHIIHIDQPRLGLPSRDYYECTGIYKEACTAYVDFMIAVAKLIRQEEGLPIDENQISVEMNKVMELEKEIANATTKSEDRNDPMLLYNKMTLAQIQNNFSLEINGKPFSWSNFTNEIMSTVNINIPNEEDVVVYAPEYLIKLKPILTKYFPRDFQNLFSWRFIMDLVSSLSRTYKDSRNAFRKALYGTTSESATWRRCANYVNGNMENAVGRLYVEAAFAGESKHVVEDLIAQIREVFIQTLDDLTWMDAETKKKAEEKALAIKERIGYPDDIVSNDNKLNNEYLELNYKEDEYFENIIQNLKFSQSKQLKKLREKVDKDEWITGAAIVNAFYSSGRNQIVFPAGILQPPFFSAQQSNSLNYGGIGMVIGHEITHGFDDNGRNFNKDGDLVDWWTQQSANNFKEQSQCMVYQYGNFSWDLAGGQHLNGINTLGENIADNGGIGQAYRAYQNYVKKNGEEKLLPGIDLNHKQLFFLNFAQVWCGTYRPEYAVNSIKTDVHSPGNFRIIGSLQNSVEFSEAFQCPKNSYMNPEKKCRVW
Procedure: as §1, §2, §3
Neprilysin, purified from rabbit kidney (Aubry M et al. (1987), Biochem Cell Biol 65, 398-404), is used at final 200 ng/mL in 50 mM Tris buffer pH 7.4. The substrate, Dansyl-Gly-(NO2)Phe-β-Ala (Goudreau N et al. (1994), Anal Biochem, 219, 87-95) (Km=37 μM), is dissolved in ethanol and is used at final 20 μM. Increasing concentrations (from 10^−10 to 10^−3 M) of inhibitors are pre-incubated for 15 min at 37° C. with NEP in 50 mM Tris buffer, pH 7.4. The substrate is next added and the incubation is continued for 60 min. The reaction is stopped by placing the plate in ice for 10 min. The reading of the fluorescence emitted is carried out in a fluorimeter at λex=355 nm, λem=535 nm.

[4] = test system: male OF1 mice; assay: Hot plate test on mice, intravenous administration; assay type: in vivo; settings: for analgesic response: mice

| SMILES | Ki [1] [nM] | Ki [2] [nM] | Ki [3] [nM] | analgesic response ([4]; Ib-1 10 mg/kg in association with THC 0.375 mg/kg, intravenous coadministration) [%] | analgesic response ([4]; compound Ib-1 alone, 10 mg/kg intravenous, vehicle EtOH/Tween 80/Water (1/1/8)) [%] | analgesic effect of the association (in words) ([4]; intravenous association of THC and Ib-1 at inactive doses, 10 min after injection, male OF1 mice) | analgesic response ([4]; THC alone, 0.375 mg/kg intravenous) [%] |
| --- | --- | --- | --- | --- | --- | --- | --- |
| C[C@H](NC(=O)[C@H](Cc1ccc(-c2ccccc2)cc1)CN(O)C=O)C(=O)O | 6.1 ± 0.7 | 86 ± 8 | 0.08 ± 0.01 | – | – | – | – |
| C[C@H](NC(=O)[C@@H](Cc1ccc(-c2ccccc2)cc1)CN(O)C=O)C(=O)O | > 10000 | 817 ± 80 | 44.1 ± 2.2 | – | – | – | – |
| C[C@H](NC(=O)[C@H](Cc1ccccc1)CN(O)C=O)C(=O)O [Ia-1, (S)-2-((R)-2-benzyl-3-(N-hydroxyformamido)propanamido) propanoic Acid] | 7.5 ± 0.4 | 143 ± 9 | 3.3 ± 0.7 | – | – | – | – |
| C[C@H](NC(=O)[C@@H](Cc1ccccc1)CN(O)C=O)C(=O)O [Ia-2, (S)-2-((S)-2-benzyl-3-(N-hydroxyformamido)propanamido) propanoic Acid] | – | > 10000 | 17.7 ± 0.9 | – | – | – | – |
| O=CN(O)C[C@@H](Cc1ccccc1)C(=O)N[C@@H](Cc1ccccc1)C(=O)O [Ib-1, (S)-2-((R)-2-benzyl-3-(N-hydroxyformamido)propanamido)-3-phenylpropanoic Acid] | 26 ± 2 | 24 ± 0.4 | 0.5 ± 0.1 | 65 | 10 | considerable synergic analgesic effect | – |
| O=CN(O)C[C@H](Cc1ccccc1)C(=O)N[C@@H](Cc1ccccc1)C(=O)O [Ib-2, (S)-2-((S)-2-benzyl-3-(N-hydroxyformamido)propanamido)-3-phenylpropanoic Acid] | – | > 10000 | 23.1 ± 1.1 | – | – | – | – |
| O=CN(O)C[C@@H](Cc1ccccc1)C(=O)N[C@H](CC(=O)O)Cc1ccccc1 [Ic-1, (S)-3-((R)-2-benzyl-3-(N-hydroxyformamido)propanamido)-4-phenyl butanoic Acid] | 443 ± 75 | 12 ± 1.7 | 6.3 ± 0.3 | – | – | – | – |
| CCCCCc1cc(O)c2c(c1)OC(C)(C)[C@@H]1CCC(C)=C[C@@H]21 [THC, reference compound] | – | – | – | – | – | – | 12 |
